Holding throughout (type): cell-based, human
Assay [1] concerns NCI-N87 cells. Put plainly: Muse caspase 3/7 activation assay. The text has this:
(§1) After the specified drug treatments, the cells were processed using the Muse Annexin V/Dead Cell Assay Kit (Luminex Corporation, Austin, USA) for quantitative analysis of live, early/ late apoptotic, and dead cells on a Muse Cell Analyzer. Briefly, the assay utilized Annexin V to detect phosphatidylserine on the external membrane of apoptotic cells. The fluorescent signal emitted by dye-conjugated antibodies was detected by flow cytometry technology (Muse Cell Analyzer, Luminex Corporation, Austin, USA). 7-Amino-Actinomycin D (7-AAD) dead cell marker was also used. The cells were then analyzed according to the user’s guide. […] After 48 h treatments the cells were processed according to the user’s guide and analyzed with the Muse caspase-3/7 kit (Millipore).The assay provides the relative percentage of living, early/late apoptotic or dead cells.

In assay [2] the test system is HGC27-R cells. Put plainly: Muse caspase 3/7 activation assay. The settings on record: 48 h.
From the text: as §1

Assay [3] concerns HGC27-S cells. Put plainly: Muse caspase 3/7 activation assay. Conditions: 48 h.
From the text: as §1

The test system of assay [4] is NCI-N87 cells. Put plainly: Muse Ki67 cell proliferation assay. Conditions: NCI-N87, single treatment (10 µM compound; 2 nM PTX); control 78.2%. The source says:
(§2) After the specified drug treatments, the cells were processed with the Muse Ki67 cell proliferation kit, which identified actively proliferating cells based on the expression of Ki67, a nuclear protein present in the active phases of the cell cycle (G1, S, G2, and M phases) and absent in the resting G0 phase. The Muse Ki67 Proliferation Assay was used with the Guava Muse Cell Analyzer according to the manufacturer’s instructions (Luminex Corporation, Austin, USA). Briefly, the cells were stained after fixation and permeabilization procedures, using Hu Ki67 or Hu IgG1 control fluorochrome-conjugated antibodies to distinguish Ki67(+) or Ki67(-) cells, respectively. The software provided the percentage of both Ki67(+) and Ki67(-) cells.

Assay [5] relates to HGC27-R cells. Put plainly: Muse Ki67 cell proliferation assay.
From the text: as §2

The test system of assay [6] is HGC27-S cells. Put plainly: Muse Ki67 cell proliferation assay. The settings on record: HGC27-S, 48 h.
From the text: as §2

The mark [7] stands for this setting: single treatment, untreated 6.6%.
[8] abbreviates: representative flow cytometry chart, 48 h, 10 µM CC48, PTX, single or combined as labelled.
Setting [9] is: representative flow cytometry chart, 10 µM CC48, PTX, single or combined as labelled.

In the case of `CC(=O)O[C@H]1C(=O)[C@@]2(C)[C@H]([C@H](OC(=O)c3ccccc3)[C@]3(O)C[C@H](OC(=O)[C@H](O)[C@@H](NC(=O)c4ccccc4)c4ccccc4)C(C)=C1C3(C)C)[C@]1(OC(C)=O)CO[C@@H]1C[C@@H]2O` [PTX, Paclitaxel], the “cells with activated caspase 3/7” value in the assay with NCI-N87 cells [1] (NCI-N87, single treatment (2 nM PTX, 6 µM AM630, 10 µM others), untreated 6.35%) amounted to 14.6%. The dead cells with NCI-N87 cells [1] (NCI-N87, single treatment, control 5.8% / 5.6%) is reported as 8.1%; with HGC27-R cells [2] (setting [7]), 7.70%; with HGC27-S cells [3] (setting [7]), 23.7%. For the same molecule, the “apoptotic cells (caspase 3/7 activation)” value is reported as 21.4% in the assay on HGC27-R cells [2] (single treatment (4 nM PTX, 6 µM AM630, 10 µM others), untreated 18.9%) and 26.2% with HGC27-S cells [3] (single treatment (4 nM PTX, 6 µM AM630, 10 µM others), untreated 13.05%). In addition, the “percentage of Ki67+ cells” value with NCI-N87 cells [4] was 68.1%; in the assay on HGC27-R cells [5] (single treatment, control 82.95%), 80.5%; with HGC27-S cells [6] (single treatment (10 µM CC48; 4 nM PTX), control 80.50%), 58.1%. Moreover, the “Ki67(+) cells” value in the assay on HGC27-R cells [5] (setting [8]) stood at 80.50%; with HGC27-S cells [6] (setting [9]), 58.10%. Moreover, the “Ki67(-) cells” value was determined as 19.50% in the assay with HGC27-R cells [5] (setting [8]) and 41.90% in the assay with HGC27-S cells [6] (setting [9]).

Values taken from publication PMC12265377, “CC48 a new CB2R agonist/FAAH inhibitor dual drug blocks gastric cancer progression and overcomes paclitaxel resistance” (Journal of Experimental & Clinical Cancer Research : CR, 2025).
